Columns and labels:
[1] = tested on: H3122 cells; experiment: Long-term cell proliferation (colony formation) assay in H3122; assay type: cell-based; details: for effect of MED12 knockdown on response to chemotherapy drugs, H3122: shMED12 #4 and #5, 2 μM cisplatin or 2.5 μM 5-FU, 18 days; for effect of MED12 knockdown on response to ALK inhibitors, H3122: shMED12 #1-3, 300 nM crizotinib or 2.5 nM NVP-TAE684; for effect of recombinant TGFbeta treatment on drug response, H3122: TGFbeta-dosage dependent, crizotinib, cisplatin 2 μM
Protocol: (§1) H3122, PC9, H3255, SK-CO-1 and SW1417 cells were cultured in RPMI with 8% heat inactivated fetal bovine serum, penicillin and streptomycin at 5% CO2. HEK 293T, Phoenix and A375, SK-MEL-28 and Huh-7 cells were cultured in DMEM with 8% heat-inactivated fetal bovine serum, penicillin and streptomycin at 5% CO2. Subclones of each cell line expressing the murine ecotropic receptor were generated and used for all experiments shown. Phoenix cells were used as producers of retroviral supernatants as described at www.stanford.edu/group/nolan/retroviral_systems/phx.html. HEK 293T cells were used as producers of lentiviral supernatants as described at www.broadinstitute.org/rnai/public/resources/protocols. The calcium phosphate method was used for the transfection of Phoenix and 293T cells. Infected cells were selected for successful retroviral integration using 2 μg/ml of puromycin.
(§2) For long-term cell proliferation assays, cells were seeded into 6-well plates (2-5×10E4 cells/well) and cultured both in the absence and presence of drugs as indicated. More details are described (Huang et al., 2009. Cancer Cell 15: 328-340). All knockdown and overexpression experiments were done by retroviral or lentiviral infection. All relevant assays were performed independently at least three times.

[2] = target: TGFbeta receptor Type II (Homo sapiens, UniProt P37173); details: cited from earlier work
[3] = tested on: SK-CO-1 colorectal cancer cells (KRASV12); experiment: Long-term cell proliferation (colony formation) assay in SK-CO-1; assay type: cell-based
Protocol: as §1, §2

[4] = tested on: Huh-7 HCC cells; experiment: Long-term cell proliferation (colony formation) assay in Huh-7; assay type: cell-based
Protocol: as §1, §2

[5] = tested on: PC9 cells; experiment: Long-term cell proliferation (colony formation) assay in PC9; assay type: cell-based; details: for effect of recombinant TGFbeta treatment on drug response, PC9: TGFbeta-dosage dependent, gefitinib 50 nM, cisplatin 0.7 μM
Protocol: (§3) H3122, PC9, H3255, SK-CO-1 and SW1417 cells were cultured in RPMI with 8% heat inactivated fetal bovine serum, penicillin and streptomycin at 5% CO2. […] Subclones of each cell line expressing the murine ecotropic receptor were generated and used for all experiments shown. Phoenix cells were used as producers of retroviral supernatants as described at www.stanford.edu/group/nolan/retroviral_systems/phx.html. […] Infected cells were selected for successful retroviral integration using 2 μg/ml of puromycin.
as §2, with “More details are described (Huang et al., 2009. Cancer Cell 15: 328-340).” left out

[6] = tested on: H3255 cells; assay type: cell-based
Protocol: as §3
as §2, with “More details are described (Huang et al., 2009. Cancer Cell 15: 328-340).” left out

[7] = tested on: H3122 cells; details: parental H3122, EML4-ALK translocation; McDermott et al., 2008; cited from earlier work
[8] = tested on: MEK/ERK activation in PC9 cells; experiment: Western blotting of MEK/ERK activation in PC9; assay type: cell-based
Excerpt: (§4) Antibody against MED12 (A300-774A) and MED13 (A301-278A) was from Bethyl Laboratories; antibodies against Vimentin (RV202) and N-cadherin (ab18203) were from Abcam; antibody against p-SMAD2 (Ser465/467, #3101), SMAD2 (L16D3, #3103), pMEK1/2 (S217/221, #9121) and MEK1/2 (L38C12, #4694) were from Cell Signaling; anti-Flag M2 (F1804) was from Sigma; antibodies against HSP90 (H-114), p-ERK (E-4), ERK1 (C-16), ERK2 (C-14), CDK8 (D-9), Lamin A/C (636), SP1 (PEP2), alpha-TUBULIN (H-183), TGFbeta R2 (C-16), CDK8 (D9) and normal rabbit IgG control were from Santa Cruz Biotechnology; A mixture of ERK1 and ERK2 antibodies was used for detection of total ERK; 12CA5 hybridoma supernatant was also used to detect HA tagged-TGFbeta R2.

[9] = tested on: Vimentin, N-cadherin and p-ERK in Huh7 cells; experiment: Western blotting of mesenchymal markers and p-ERK in Huh7; assay type: cell-based; details: 50 picoM of TGFbeta for 6 days
Excerpt: as §4

[10] = tested on: MEK/ERK activation in H3122 cells; experiment: Western blotting of MEK/ERK activation in H3122; assay type: cell-based; details: data not shown
Excerpt: as §4

[11] = tested on: MEK/ERK activation in H3255 cells; experiment: Western blotting of MEK/ERK activation in H3255; assay type: cell-based
Excerpt: as §4

[12] = tested on: A375 melanoma cells (BRAFV600E); experiment: Long-term cell proliferation (colony formation) assay in A375; assay type: cell-based; details: without targeted cancer drugs
Protocol: as §3
as §2, with “More details are described (Huang et al., 2009. Cancer Cell 15: 328-340).” left out

TGFbeta receptor Type II, sequence (P37173 23-567, species assumed): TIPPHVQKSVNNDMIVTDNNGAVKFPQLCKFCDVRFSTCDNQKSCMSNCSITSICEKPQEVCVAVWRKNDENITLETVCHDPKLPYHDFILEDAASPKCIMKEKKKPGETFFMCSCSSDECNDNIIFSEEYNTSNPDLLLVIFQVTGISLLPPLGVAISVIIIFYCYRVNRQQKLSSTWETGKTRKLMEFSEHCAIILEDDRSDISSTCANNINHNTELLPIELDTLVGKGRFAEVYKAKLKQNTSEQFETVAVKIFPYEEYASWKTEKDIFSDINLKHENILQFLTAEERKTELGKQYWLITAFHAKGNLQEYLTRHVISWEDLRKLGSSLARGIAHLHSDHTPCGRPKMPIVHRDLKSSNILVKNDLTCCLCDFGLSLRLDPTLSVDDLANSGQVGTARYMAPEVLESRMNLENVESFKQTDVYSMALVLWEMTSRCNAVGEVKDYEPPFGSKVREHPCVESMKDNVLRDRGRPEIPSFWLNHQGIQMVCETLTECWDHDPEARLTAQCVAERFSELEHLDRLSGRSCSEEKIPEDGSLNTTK

For `O=c1[nH]cc(F)c(=O)[nH]1` [5-FU, 5-Fluorouracil], the “effect of MED12 knockdown on response to chemotherapy drugs, H3122” value [1] was “confers resistance”.

In the case of `Cc1cccc(-c2nn3c(c2-c2ccnc4ccc(C(N)=O)cc24)CCC3)n1` [LY2157299, 4-(2-(6-methylpyridin-2-yl)-5,6-dihydro-4H-pyrrolo[1,2-b]pyrazol-3-yl)quinoline-6-carboxamide], the “proliferation of control and MED12KD H3122 cells, monotherapy” value ([1]; 1 μM LY2157299 alone, 14 days) is listed as “little effect” and the IC50 [2] is listed as 2 nM.

In the case of `Cn1cnc2c(F)c(Nc3ccc(Br)cc3Cl)c(C(=O)NOCCO)cc21` [AZD6244, seluteminib], the “effect of MED12 knockdown on response to MEK inhibitor, SK-CO-1” value ([3]; 0.5 μM AZD6244, 28 days) is reported as “conferred resistance”, the “effect of recombinant TGFbeta treatment on drug response, SK-CO-1” value ([3]; TGFbeta-dosage dependent, AZD6244 0.5 μM) is reported as “leads to resistance” and the “sensitivity of SK-CO-1 cells” value ([3]; parental cells) is reported as “highly sensitive”.

For `CNC(=O)c1cc(Oc2ccc(NC(=O)Nc3ccc(Cl)c(C(F)(F)F)c3)cc2)ccn1` [sorafenib], the “effect of MED12 knockdown on response to sorafenib, Huh-7” value ([4]; 2 μM sorafenib, 21 days) was “became resistant”.

For `COc1cc2ncnc(Nc3ccc(F)c(Cl)c3)c2cc1OCCCN1CCOCC1` [gefitinib], the “effect of recombinant TGFbeta treatment on drug response, PC9” value [5] was “leads to resistance”.

With `C#Cc1cccc(Nc2ncnc3cc(OCCOC)c(OCCOC)cc23)c1` [erlotinib] the “effect of MED12 knockdown on response to EGFR inhibitors, H3255” value [6] was “conferred resistance” and the “effect of MED12 knockdown on response to EGFR inhibitors, PC9” value [5] was “conferred resistance”.

In the case of `COc1cc(N2CCC(N3CCN(C)CC3)CC2)ccc1Nc1ncc(Cl)c(Nc2ccccc2S(=O)(=O)C(C)C)n1` [NVP-TAE684], the “effect of MED12 knockdown on response to ALK inhibitors, H3122” value ([1]; 28 days) is listed as “conferred resistance” and the “sensitivity of H3122 cells to selective ALK inhibitors” value [7] is listed as “exquisitely sensitive”.

With “recombinant TGFbeta: Recombinant hTGFbeta 1 (240-B/CF) purchased from R&D systems” the “MEK/ERK activation in PC9 cells” value [8] was “caused MEK/ERK activation”, the “levels of Vimentin, N-cadherin and p-ERK in Huh7 cells” value [9] was “increased levels of Vimentin, N-cadherin and p-ERK” and the “MEK/ERK activation in H3122 cells” value [10] was “caused MEK/ERK activation”. The “proliferation of Huh-7 cells, TGFbeta alone” value ([4]; without targeted cancer drugs, data not shown) was “growth inhibition”, the “MEK/ERK activation in H3255 cells” value [11] was “caused MEK/ERK activation” and the “proliferation of A375 cells, TGFbeta alone” value [12] was “growth inhibition”.

With `C[C@@H](Oc1cc(-c2cnn(C3CCNCC3)c2)cnc1N)c1c(Cl)ccc(F)c1Cl` [crizotinib] the “effect of recombinant TGFbeta treatment on drug response, H3122” value [1] was “leads to resistance”, the “proliferation of control H3122 cells” value ([1]; pRS control cells, 300 nM crizotinib alone, 28 days) was “potently inhibited the proliferation” and the “effect of MED12 knockdown on response to ALK inhibitors, H3122” value ([1]; 28 days) was “conferred resistance”. For the same compound, the “sensitivity of H3122 cells to selective ALK inhibitors” value [7] was “exquisitely sensitive”.

In the case of `N.N.[Cl][Pt][Cl]` [cisplatin], the “effect of recombinant TGFbeta treatment on drug response, H3122” value [1] is reported as “leads to resistance”, the “effect of MED12 knockdown on response to chemotherapy drugs, H3122” value [1] is reported as “confers resistance” and the “effect of recombinant TGFbeta treatment on drug response, PC9” value [5] is reported as “leads to resistance”. The “effect of MED12 knockdown on response to cisplatin, PC9” value ([5]; shMED12 #4 and #5, 0.37 or 1.1 μM cisplatin, 21 days) was “confers resistance”.

Reference: patent US20150275306A1, “METHODS AND MEANS FOR PREDICTING RESISTANCE TO ANTI-CANCER TREATMENT” (Stichting Het Nederlands Kanker Instituut Antoni van …, priority 2012, published 2015)
